The values that follow come from patent US9481646B2, “Low calcemic, highly antiproliferative, analogs of calcitriol” (The Johns Hopkins University, priority 2007, dated 2016).

The subject of series [1] is murine keratinocytes. The series is described as follows: antiproliferative activity in murine keratinocytes (standard in vitro protocol). The class given is cell-based. Particulars: Mus musculus, Keratinocyte, read-out: Antiproliferative IC50.
Series [2] deals with T1, human recombinant VDR (Homo sapiens, UniProt P11473).
T1 construct: purchased Biomol SE-140
T1 sequence (P11473 1-427): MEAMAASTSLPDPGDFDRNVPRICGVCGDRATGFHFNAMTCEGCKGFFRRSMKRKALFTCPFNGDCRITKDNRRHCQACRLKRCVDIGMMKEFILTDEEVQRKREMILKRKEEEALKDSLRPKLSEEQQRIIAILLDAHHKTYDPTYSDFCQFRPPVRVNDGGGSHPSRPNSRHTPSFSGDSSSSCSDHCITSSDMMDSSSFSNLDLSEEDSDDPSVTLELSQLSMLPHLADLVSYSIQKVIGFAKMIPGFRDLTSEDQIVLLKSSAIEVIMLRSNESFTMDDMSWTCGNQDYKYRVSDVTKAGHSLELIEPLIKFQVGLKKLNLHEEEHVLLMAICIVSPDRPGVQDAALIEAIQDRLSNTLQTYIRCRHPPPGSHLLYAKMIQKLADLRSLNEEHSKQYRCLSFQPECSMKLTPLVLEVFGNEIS
The experiment in a line: competitive binding to the human VDR.

Series [3] is described as follows: in vivo calciuric activity, calcium levels in rat urine. Particulars: relative activity (A = 1).

Turning to `C=C1/C(=C\C=C2/CCC[C@]3(C)[C@@H]([C@H](C)COCC4=CCCCC4(C)C)CC[C@@H]23)C[C@@H](O)C[C@@H]1O` [Analog 1d], the IC50 in series [1] stood at 50 nM; in series [2], 300 nM. Moreover, the “Calciuria Activity Compared to 1” value in series [3] is given as below 0.02.
For the molecule `C=C1/C(=C\C=C2/CCC[C@]3(C)[C@@H]([C@H](C)CCCC(C)(C)O)CC[C@@H]23)C[C@@H](O)C[C@@H]1O` [A, 1α,25-dihydroxyvitamin D3, reference compound], the IC50 in series [1] turned out to be 80 nM. In series [3], the “Calciuria Activity Compared to 1” value was determined as 1.

What is called IC50 is the concentration at which inhibition is half-maximal.
